Test results as given in paper PMC4701715 (Current Therapeutic Research, Clinical and Experimental, 2015).

What was measured:
Assay type in all cases: cell-based
rat GCGr [1] = target: T1, rat GCGr (Rattus norvegicus, UniProt P30082); assay: cAMP accumulation in CHO-K1 cells overexpressing the rat GCGr; details: CHO cells overexpressing rGCGr; 30 min incubation, room temperature, 1 mM IBMX; cAMP ELISA; mean, n = 3
T1 construct: host or cells: Chinese hamster ovary-K1 cells
Procedure: (§1) All cell culture reagents were obtained from Invitrogen (Life Technologies Ltd, Paisley, United Kingdom) unless otherwise stated. Chinese hamster ovary-K1 cells overexpressing the rat GCGr were routinely maintained in Dulbecco’s modified eagle medium (DMEM) with 25 mM glucose and 1 mM sodium pyruvate supplemented with 10% fetal bovine serum, 25 mM hydroxyethyl piperazineethanesulfonic acid, 1% antibiotic (100 U/mL penicillin and 100 µg/mL streptomycin), and 1 × nonessential amino acids. Chinese hamster lung cells overexpressing the rat GLP-1r were maintained in the same DMEM but without additional hydroxyethyl piperazineethanesulfonic acid or nonessential amino acids.
(§2) Levels of cAMP accumulation was measured in Chinese hamster ovary-K1 cells overexpressing the rat GCGr (cDNA from Origene, Cambridge Bioscience, Cambridge, United Kingdom) or Chinese hamster lung cells overexpressing the rat GLP-1r (a gift from Bernard Thorens, University of Lausanne, Switzerland). […]
(§3) Data were plotted and in vivo efficacy values calculated.
(§4) cAMP in vitro efficacy and binding in vitro affinity were calculated using nonlinear regression with Prism version 5 software (GraphPad Software Inc, San Diego, California). Differences in cumulative food intake and body weight were analyzed using 1-way ANOVA and post hoc tests with Dunnett or Bonferroni correction (Prism version 5 software). […]

rat GLP-1r = target: T2, rat GLP-1r (Rattus norvegicus, UniProt P32301); assay: cAMP accumulation in Chinese hamster lung cells overexpressing the rat GLP-1r; details: Chinese hamster lung cells overexpressing rGLP-1r; 30 min incubation, room temperature, 1 mM IBMX; cAMP ELISA; mean, n = 3
T2 construct: expressed in transfected cells; host or cells: Chinese hamster lung cells
T2 sequence (P32301 22-463): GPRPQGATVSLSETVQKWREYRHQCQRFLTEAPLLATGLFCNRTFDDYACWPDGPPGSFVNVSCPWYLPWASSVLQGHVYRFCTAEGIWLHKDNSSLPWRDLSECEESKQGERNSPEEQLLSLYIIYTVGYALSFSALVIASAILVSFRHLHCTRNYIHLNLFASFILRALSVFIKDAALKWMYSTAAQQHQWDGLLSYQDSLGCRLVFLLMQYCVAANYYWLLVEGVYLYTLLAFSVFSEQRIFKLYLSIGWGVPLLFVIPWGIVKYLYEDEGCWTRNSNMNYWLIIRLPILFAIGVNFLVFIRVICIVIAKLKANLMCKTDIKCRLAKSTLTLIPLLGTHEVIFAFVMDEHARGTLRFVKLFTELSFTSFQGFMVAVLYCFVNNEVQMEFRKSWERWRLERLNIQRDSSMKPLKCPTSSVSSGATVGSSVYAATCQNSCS
Procedure: as §1, §2, §3, §4

rat GCGr [2] = target: T1, rat GCGr; assay: Rat GCGr antagonism study: cAMP in the presence of 0.1 nM glucagon; details: n = 3
Procedure: Postincubation, medium was removed and cells lysed with 120 µL/well of 0.1 M hydrochloride + 0.5% nonionic, octylphenol ethoxylate surfactant. cAMP levels were measured using an indirect ELISA according to the manufacturer’s instructions (ADI-900-066, Enzo Life Sciences, United Kingdom), optical density was read at 405 nm on a Biotek ELx808 (Wolf Laboratories, York, United Kingdom). Data were plotted and […] efficacy values calculated.

T1 sequence (P30082 27-485): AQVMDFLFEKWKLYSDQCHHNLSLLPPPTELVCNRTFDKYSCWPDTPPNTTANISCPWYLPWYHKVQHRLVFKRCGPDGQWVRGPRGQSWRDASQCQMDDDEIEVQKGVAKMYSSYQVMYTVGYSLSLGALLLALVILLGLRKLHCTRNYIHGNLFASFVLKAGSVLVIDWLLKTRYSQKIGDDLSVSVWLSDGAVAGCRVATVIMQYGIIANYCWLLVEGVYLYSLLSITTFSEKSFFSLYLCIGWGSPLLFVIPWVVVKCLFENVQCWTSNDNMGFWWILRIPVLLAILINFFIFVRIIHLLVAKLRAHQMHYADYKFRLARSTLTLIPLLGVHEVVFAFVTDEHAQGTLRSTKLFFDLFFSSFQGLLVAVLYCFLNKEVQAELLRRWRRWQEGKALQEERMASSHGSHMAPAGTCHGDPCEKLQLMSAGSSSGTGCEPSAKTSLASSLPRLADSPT

CC[C@H](C)[C@H](NC(=O)[C@H](CC(N)=O)NC(=O)[C@H](CC(N)=O)NC(=O)[C@H](CCCNC(=N)N)NC(=O)[C@H](CC(N)=O)NC(=O)[C@H](CCCNC(=N)N)NC(=O)[C@H](CCCCN)NC(=O)[C@@H](NC(=O)[C@H](CC(N)=O)NC(=O)[C@H](CCSC)NC(=O)[C@H](CC(C)C)NC(=O)[C@H](Cc1c[nH]c2ccccc12)NC(=O)[C@H](CCC(N)=O)NC(=O)[C@@H](NC(=O)[C@H](Cc1ccccc1)NC(=O)[C@H](CC(=O)O)NC(=O)[C@H](CCC(N)=O)NC(=O)[C@H](C)NC(=O)[C@H](CCCNC(=N)N)NC(=O)[C@H](CCCNC(=N)N)NC(=O)[C@H](CO)NC(=O)[C@H](CC(=O)O)NC(=O)[C@H](CC(C)C)NC(=O)[C@H](Cc1ccc(O)cc1)NC(=O)[C@H](CCCCN)NC(=O)[C@H](CO)NC(=O)[C@H](Cc1ccc(O)cc1)NC(=O)[C@H](CC(=O)O)NC(=O)[C@H](CO)NC(=O)[C@@H](NC(=O)[C@H](Cc1ccccc1)NC(=O)[C@@H](NC(=O)CNC(=O)[C@H](CCC(=O)O)NC(=O)[C@H](CO)NC(=O)[C@@H](N)Cc1c[nH]cn1)[C@@H](C)O)[C@@H](C)O)C(C)C)[C@@H](C)O)C(=O)N[C@@H](C)C(=O)O [OXME3]
EC50 (rat GCGr [1]): 160 nM | EC50 (rat GLP-1r): 8.1 nM | increase of cAMP levels compared with glucagon stimulation alone (rat GCGr [2]; 30 nM peptide with 0.1 nM glucagon): 9% | decrease of glucagon-mediated cAMP accumulation, mean (rat GCGr [2]; all concentrations tested except 30 nM, with 0.1 nM glucagon, relative to glucagon alone): 40.3%
